Structures are written as SMILES.

The target of data set [1] is T1, Raf and/or Mek kinase (human c-Raf, GST-MEK1) (Homo sapiens, UniProt P04049+Q02750).
T1 construct: Sf9 insect cell lysate containing full length 6his-tagged recombinant human c-Raf; 6His; host or cells: Sf9 insect cells (c-Raf, used as lysate); E. coli (MEK1-GST, GST-MAPK)
The data set is described as follows: Raf/Mek kinase cascade assay. The following applies: c-Raf dependent activation of GST-MEK and GST-MAPK, phospho-MAPK ELISA; (a)/(b)/(c) = average of two/three/four runs. The data set is classed as biochemical. The method, boiled down: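 Cascade run with c-Raf (0.4 U) activating non-active GST-MEK1 and GST-p42 MAPK in MOPS pH 7.2 buffer with ATP/MgCl2, 60 min at 30 °C. Phospho-MAPK captured on anti-GST plates and read with anti-phospho-MAPK and europium-conjugated secondary antibody. Single-point % inhibition at […]; IC50 over 10 µM–1 nM half-log dilutions.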

T1 sequence (P04049 whole entry): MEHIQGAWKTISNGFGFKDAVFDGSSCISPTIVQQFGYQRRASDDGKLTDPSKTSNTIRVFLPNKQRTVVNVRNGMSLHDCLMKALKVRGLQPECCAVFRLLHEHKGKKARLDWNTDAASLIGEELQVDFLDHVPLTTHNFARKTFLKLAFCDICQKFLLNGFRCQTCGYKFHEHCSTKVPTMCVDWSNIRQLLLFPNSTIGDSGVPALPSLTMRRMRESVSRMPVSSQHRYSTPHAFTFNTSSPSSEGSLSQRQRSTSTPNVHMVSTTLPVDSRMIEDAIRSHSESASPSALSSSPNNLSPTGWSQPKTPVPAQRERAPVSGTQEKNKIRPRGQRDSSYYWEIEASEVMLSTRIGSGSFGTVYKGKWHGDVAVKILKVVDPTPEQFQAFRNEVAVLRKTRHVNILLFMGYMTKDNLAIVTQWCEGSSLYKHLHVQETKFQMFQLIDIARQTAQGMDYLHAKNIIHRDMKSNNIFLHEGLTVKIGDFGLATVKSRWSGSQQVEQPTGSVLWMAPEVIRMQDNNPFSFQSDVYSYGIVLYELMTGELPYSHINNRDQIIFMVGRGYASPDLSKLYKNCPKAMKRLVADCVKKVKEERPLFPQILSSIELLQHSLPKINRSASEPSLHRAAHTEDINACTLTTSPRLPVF
T1 sequence (Q02750 whole entry): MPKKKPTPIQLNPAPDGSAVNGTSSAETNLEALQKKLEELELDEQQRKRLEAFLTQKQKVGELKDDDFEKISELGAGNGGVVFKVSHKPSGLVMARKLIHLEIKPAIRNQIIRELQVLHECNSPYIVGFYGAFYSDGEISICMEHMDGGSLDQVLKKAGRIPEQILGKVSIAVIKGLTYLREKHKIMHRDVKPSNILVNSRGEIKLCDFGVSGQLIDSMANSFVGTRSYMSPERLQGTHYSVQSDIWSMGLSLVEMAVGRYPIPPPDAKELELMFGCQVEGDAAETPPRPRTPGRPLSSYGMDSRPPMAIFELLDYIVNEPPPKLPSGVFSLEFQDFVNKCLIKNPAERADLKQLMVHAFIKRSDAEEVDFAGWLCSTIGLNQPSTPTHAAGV

For the compound `COc1cc2c(Nc3ccc(Oc4ccccc4)cc3)c(C#N)cnc2cc1OCCN1CCC(N2CCCCC2)CC1` [Example 32, 7-(2-[1,4′]Bipiperidinyl-1′-yl-ethoxy)-6-methoxy-4-(4-phenoxy-phenylamino)-quinoline-3-carbonitrile], the melting point was 141 °C (dec.). For the same compound, the IC50 in data set [1] was 0.02 µM.

By IC50 is commonly meant the midpoint of a concentration-inhibition curve. As a reminder, the melting point is the temperature of the solid-liquid transition.

Values taken from patent US7767671B2, “3-Quinolinecarbonitrile protein kinase inhibitors” (Wyeth, priority 2004, dated 2010).
